Activity calls are given as the source filed them. The rule behind the calls is not given here.
How the values were obtained:
Experiment in all cases: CXCR6 receptor antagonists, dose response, cell-based, beta-arrestin, DiscoveRx, APJ panel, uHTS hits (AID 624129)
[1] = target: Apelin receptor (Homo sapiens) (UniProt P35414); settings: CXCR6 beta-arrestin (DiscoveRx) antagonist cell assay, APJ
[2] = target: Beta-galactosidase (Escherichia coli) (UniProt Q8VNN2); settings: CXCR6 beta-arrestin (DiscoveRx) antagonist cell assay, b-galactosidase
Chain of Beta-galactosidase (Escherichia coli) (Q8VNN2 whole entry, looked up): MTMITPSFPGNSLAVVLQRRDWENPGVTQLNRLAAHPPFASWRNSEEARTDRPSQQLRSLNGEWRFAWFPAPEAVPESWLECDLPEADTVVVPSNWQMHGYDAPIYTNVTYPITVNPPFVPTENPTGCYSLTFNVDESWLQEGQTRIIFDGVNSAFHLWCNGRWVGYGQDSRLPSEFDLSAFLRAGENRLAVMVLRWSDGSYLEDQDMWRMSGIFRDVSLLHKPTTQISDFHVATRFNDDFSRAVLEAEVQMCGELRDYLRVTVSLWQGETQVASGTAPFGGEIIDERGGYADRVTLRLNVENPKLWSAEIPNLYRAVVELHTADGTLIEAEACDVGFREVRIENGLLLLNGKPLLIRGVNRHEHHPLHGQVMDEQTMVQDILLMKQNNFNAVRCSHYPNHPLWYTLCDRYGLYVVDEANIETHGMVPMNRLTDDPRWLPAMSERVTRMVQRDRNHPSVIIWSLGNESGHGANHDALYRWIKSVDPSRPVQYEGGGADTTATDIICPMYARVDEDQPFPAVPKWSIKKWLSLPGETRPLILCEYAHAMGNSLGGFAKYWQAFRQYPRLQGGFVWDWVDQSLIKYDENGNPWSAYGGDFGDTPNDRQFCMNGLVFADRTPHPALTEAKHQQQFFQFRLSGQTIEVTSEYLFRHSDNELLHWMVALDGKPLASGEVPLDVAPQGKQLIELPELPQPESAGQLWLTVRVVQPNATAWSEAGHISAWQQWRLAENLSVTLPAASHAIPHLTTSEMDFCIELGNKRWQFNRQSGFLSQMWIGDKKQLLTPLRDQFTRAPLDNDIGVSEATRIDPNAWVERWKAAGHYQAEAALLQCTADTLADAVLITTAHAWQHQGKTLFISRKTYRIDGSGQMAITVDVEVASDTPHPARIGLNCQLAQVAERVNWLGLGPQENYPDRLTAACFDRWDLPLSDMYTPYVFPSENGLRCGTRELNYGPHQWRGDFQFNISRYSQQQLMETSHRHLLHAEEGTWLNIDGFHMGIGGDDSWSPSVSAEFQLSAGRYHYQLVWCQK

[3] = target: C-C chemokine receptor type 6 (Homo sapiens) (UniProt P51684); settings: CXCR6 beta-arrestin (DiscoveRx) antagonist cell assay
[4] = target: C-X-C chemokine receptor type 6 (Homo sapiens) (UniProt O00574); settings: CXCR6 beta-arrestin (DiscoveRx) antagonist cell assay; for inhibition: CXCR6, run 1, dose range 2, at 80 µM (top of the series)
Chain of C-X-C chemokine receptor type 6 (Homo sapiens) (O00574 whole entry, looked up): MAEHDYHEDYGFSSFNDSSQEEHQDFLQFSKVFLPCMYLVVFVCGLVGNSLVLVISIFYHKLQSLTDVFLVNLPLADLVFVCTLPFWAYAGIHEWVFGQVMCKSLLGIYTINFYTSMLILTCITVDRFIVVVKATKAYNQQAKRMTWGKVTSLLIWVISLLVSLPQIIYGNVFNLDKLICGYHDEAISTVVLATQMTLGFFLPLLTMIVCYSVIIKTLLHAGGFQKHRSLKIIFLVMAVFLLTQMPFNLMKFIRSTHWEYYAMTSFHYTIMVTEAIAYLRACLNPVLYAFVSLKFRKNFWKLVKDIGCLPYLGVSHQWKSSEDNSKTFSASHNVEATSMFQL

[5] = dose range 1, mean IC50 across replicates
[6] = CCR6, dose range 1, mean IC50 across replicates
[7] = CXCR6, dose range 1, mean IC50 across replicates

Row | Compound | IC50 ([1]; dose range 1) | IC50 [1, 5] [µM] | IC50 ([1]; run 2, dose range 1) [µM] | IC50 ([1]; run 3, dose range 1) [µM] | IC50 ([2]; dose range 1) | IC50 [2, 5] [µM] | IC50 ([3]; CCR6, dose range 1) [µM] | IC50 [3, 6] [µM] | IC50 ([3]; CCR6, run 2, dose range 1) [µM] | IC50 ([4]; CXCR6, dose range 1) | IC50 [4, 7] [µM] | IC50 ([4]; CXCR6, run 1, dose range 2) [µM] | IC50 ([4]; CXCR6, run 2, dose range 1) [µM] | IC50 ([4]; CXCR6, run 2, dose range 2) [µM] | inhibition [4] [%]
1 | O=[N+]([O-])c1c(NCCCO)cc(Sc2ccc(Cl)cc2)c2nonc12 | > 80 µM (inactive) | > 80 | > 80 | > 80 | > 80 µM (inactive) | > 80 | 2.58 | 12.9 | 23.2 | inactive | 11.3 | 3.9 | > 80 | 3.24 | 
2 | CCCC(=O)OCCNc1cc(Sc2nccn2C)c2nonc2c1[N+](=O)[O-] | 8.29 µM | 6.22 | 4.43 | 5.96 | > 80 µM (inactive) | > 80 | 4.87 | 4.62 | 4.38 | 4.86 µM | 5.03 | 5.61 | 5.05 | 4.59 | 
3 | Cc1ccc(OCCN2C(=O)c3ccccc3C2=O)c([N+](=O)[O-])c1 | 4.29 µM | 5.81 | 7.87 | 5.29 | > 80 µM (inactive) | > 80 | 8.16 | 6.82 | 5.48 | 6.4 µM | 5.31 | 5.94 | 4.95 | 3.96 | 
4 | COC(CNC(=O)c1cc(C(=O)c2c(-c3c(Cl)cccc3Cl)noc2C)c[nH]1)OC | 5.2 µM | 9.29 | 10.7 | 12 | > 80 µM (inactive) | > 80 | 16.9 | 24.1 | 31.4 | inactive | 15.7 |  | 18.6 |  | 80.7
5 | FC(F)(F)c1cnc(NNC(=S)Nc2ccccc2Cl)c(Cl)c1 |  | > 80 | > 80 | > 80 | > 80 µM (inactive) | > 80 |  | > 80 | > 80 | > 80 µM (inactive) | > 80 |  | > 80 |  | 2.4

Other lines, results leading:

Row | IC50 ([1]; dose range 1) | IC50 [1, 5] [µM] | IC50 ([1]; run 2, dose range 1) [µM] | IC50 ([1]; run 3, dose range 1) [µM] | IC50 ([2]; dose range 1) | IC50 [2, 5] [µM] | IC50 ([3]; CCR6, dose range 1) [µM] | IC50 [3, 6] [µM] | IC50 ([3]; CCR6, run 2, dose range 1) [µM] | IC50 ([4]; CXCR6, dose range 1) | IC50 [4, 7] [µM] | IC50 ([4]; CXCR6, run 1, dose range 2) [µM] | IC50 ([4]; CXCR6, run 2, dose range 1) [µM] | IC50 ([4]; CXCR6, run 2, dose range 2) [µM] | inhibition [4] [%] | Compound
6 | 13.4 µM | 13.4 | 13.4 | > 80 | > 80 µM (inactive) | > 80 | 8.24 | 7.46 | 6.69 | 9.59 µM | 10.7 | 11.2 | 11.5 | 10.7 |  | CCOc1ccccc1NC(=O)c1nc(S(=O)(=O)Cc2ccccc2)ncc1Cl
7 | 2.79 µM | 7.52 | 15.3 | 4.43 | > 80 µM (inactive) | > 80 | 2.42 | 3.22 | 4.01 | 4.85 µM | 4.74 | 2.69 | 6.67 | > 79 |  | C/C(=N\NC(=O)c1cc(-c2cccs2)nc2ccccc12)c1ccccn1
8 | 20.7 µM | 24.3 | 27.9 | > 80 | > 80 µM (inactive) | > 80 | 14.2 | 16.3 | 18.3 | inactive | 20.7 |  | > 80 |  | 38.7 | CCOc1ccc(NCC(=O)c2ccc(C)cc2)cc1
9 | 16.1 µM | 14 | 13.1 | 12.8 | > 80 µM (inactive) | > 80 | 9.49 | 9.89 | 10.3 | 11.8 µM | 9.68 | 9.59 | 9.18 | 8.16 |  | O=C(C#Cc1ccccc1)c1ccco1

From PubChem BioAssay AID624129 (Sanford-Burnham Center for Chemical Genomics, 2012)
